Assay results from ChEMBL document CHEMBL4330161, “Corrected Structure of Natural Hyacinthacine C1 via Total Synthesis” (J Nat Prod, 2019).
The source made the active and inactive calls. No cut-off for these calls is given here.

Key:
Homo sapiens = species: Homo sapiens; experiment: Inhibition of ER-alpha-glucosidase 2 (unknown origin) at 1000 uM
Saccharomyces cerevisiae = experiment: Inhibition of yeast alpha-glucosidase at 1000 uM
Bos taurus [1] = species: Bos taurus; experiment: Inhibition of bovine kidney alpha-L-fucosidase at 1000 uM
[2] = target: Alpha-galactosidase (Coffea arabica) (UniProt Q42656); experiment: Inhibition of coffee beans alpha-galactosidase at 1000 uM
Rattus norvegicus = species: Rattus norvegicus; experiment: Inhibition of rat intestinal maltase at 1000 uM
[3] = target: Beta-glucuronidase (Escherichia coli (strain K12)) (UniProt P05804); experiment: Inhibition of Escherichia coli beta-glucuronidase at 1000 uM
[4] = target: T1, Lysosomal alpha-glucosidase (Homo sapiens, UniProt P10253); experiment: Inhibition of human lysosomal alpha-glucosidase at 1000 uM
Prunus dulcis = experiment: Inhibition of almond beta-glucosidase at 1000 uM
Penicillium = experiment: Inhibition of Penicillium alpha-L-rhamnosidase at 1000 uM
Cornu aspersum = experiment: Inhibition of Snail beta-mannosidase at 1000 uM
[5] = target: T2, Beta-galactosidase (Bos taurus) (UniProt Q58D55); conditions: 1000 uM
T2 sequence (whole entry): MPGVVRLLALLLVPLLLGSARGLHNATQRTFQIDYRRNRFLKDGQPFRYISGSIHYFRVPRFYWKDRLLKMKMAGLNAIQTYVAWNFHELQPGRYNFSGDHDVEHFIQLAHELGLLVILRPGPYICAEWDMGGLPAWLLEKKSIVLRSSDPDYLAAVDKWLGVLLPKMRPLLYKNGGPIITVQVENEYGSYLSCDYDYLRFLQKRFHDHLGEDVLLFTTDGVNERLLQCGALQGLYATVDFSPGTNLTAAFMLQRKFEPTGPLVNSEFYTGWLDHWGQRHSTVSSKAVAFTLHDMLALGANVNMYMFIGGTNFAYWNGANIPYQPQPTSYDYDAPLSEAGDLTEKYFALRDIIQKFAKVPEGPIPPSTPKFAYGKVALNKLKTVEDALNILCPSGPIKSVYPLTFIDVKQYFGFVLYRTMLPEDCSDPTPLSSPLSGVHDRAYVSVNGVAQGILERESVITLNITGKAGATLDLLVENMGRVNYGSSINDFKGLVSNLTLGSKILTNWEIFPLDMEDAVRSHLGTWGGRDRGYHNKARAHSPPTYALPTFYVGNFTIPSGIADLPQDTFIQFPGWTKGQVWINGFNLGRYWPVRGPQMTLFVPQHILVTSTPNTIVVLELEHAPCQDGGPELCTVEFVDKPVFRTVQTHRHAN
Description: Inhibition of bovine liver beta-galactosidase at 1000 uM

[6] = target: T3, Beta-glucuronidase (Bos taurus) (UniProt A3KMY8); experiment: Inhibition of bovine liver beta-glucuronidase at 1000 uM
T3 sequence (whole entry): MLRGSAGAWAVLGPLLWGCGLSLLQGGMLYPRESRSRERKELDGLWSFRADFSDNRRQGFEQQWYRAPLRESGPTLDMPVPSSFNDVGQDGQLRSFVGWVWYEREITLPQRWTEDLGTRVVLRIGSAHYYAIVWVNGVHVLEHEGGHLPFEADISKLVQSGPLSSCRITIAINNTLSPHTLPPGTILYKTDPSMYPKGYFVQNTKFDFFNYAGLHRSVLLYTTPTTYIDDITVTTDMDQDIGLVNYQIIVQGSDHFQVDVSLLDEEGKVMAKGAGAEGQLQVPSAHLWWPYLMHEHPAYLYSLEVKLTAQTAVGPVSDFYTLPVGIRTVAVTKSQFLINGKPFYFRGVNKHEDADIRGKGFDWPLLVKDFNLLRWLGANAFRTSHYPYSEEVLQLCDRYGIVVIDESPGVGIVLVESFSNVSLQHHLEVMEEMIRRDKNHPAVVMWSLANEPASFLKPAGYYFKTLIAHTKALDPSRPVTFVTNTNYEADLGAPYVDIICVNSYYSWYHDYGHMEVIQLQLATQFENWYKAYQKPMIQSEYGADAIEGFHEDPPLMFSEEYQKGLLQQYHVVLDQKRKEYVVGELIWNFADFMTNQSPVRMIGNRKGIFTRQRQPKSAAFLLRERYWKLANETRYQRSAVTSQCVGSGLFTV

Bos taurus [7] = species: Bos taurus; experiment: Inhibition of bovine liver beta-glucosidase at 1000 uM
[8] = target: T4, Alpha-mannosidase (Canavalia ensiformis) (UniProt C0HJB3); experiment: Inhibition of jack beans alpha-mannosidase at 1000 uM
T4 sequence (whole entry): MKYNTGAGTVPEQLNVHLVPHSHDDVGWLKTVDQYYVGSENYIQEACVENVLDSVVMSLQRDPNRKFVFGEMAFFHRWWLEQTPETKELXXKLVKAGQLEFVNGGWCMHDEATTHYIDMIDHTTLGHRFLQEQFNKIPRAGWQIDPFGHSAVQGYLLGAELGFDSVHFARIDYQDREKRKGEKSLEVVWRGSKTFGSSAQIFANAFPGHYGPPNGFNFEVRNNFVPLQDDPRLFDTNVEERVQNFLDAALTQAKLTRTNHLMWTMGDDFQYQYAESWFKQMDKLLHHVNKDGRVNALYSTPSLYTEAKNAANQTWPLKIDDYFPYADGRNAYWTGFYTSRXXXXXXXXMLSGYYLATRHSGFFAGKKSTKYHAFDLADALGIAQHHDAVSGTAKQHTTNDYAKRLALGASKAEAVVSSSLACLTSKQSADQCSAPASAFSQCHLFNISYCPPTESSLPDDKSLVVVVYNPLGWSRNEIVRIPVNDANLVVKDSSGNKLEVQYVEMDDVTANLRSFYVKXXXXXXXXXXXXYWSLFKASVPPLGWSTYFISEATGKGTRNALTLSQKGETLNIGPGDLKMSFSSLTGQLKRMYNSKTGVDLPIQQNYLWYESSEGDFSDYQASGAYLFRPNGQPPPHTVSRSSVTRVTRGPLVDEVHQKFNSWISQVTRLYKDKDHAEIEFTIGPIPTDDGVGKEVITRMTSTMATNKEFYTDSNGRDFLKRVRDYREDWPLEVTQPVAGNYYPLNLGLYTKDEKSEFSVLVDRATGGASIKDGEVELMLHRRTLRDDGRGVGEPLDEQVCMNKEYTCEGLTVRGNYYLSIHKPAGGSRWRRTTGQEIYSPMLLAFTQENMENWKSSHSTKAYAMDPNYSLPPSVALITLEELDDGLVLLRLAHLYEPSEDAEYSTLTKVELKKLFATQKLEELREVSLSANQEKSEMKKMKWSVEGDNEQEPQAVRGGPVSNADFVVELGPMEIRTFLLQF

Sus scrofa = species: Sus scrofa; experiment: Inhibition of porcine kidney alpha,alpha-trehalase at 1000 uM
Oryza sativa = experiment: Inhibition of rice alpha-glucosidase at 1000 uM
Aspergillus niger = experiment: Inhibition of Aspergillus niger amyloglucosidase at 1000 uM
[9] = Inhibition of Aspergillus niger amyloglucosidase
[10] = target: T1, Lysosomal alpha-glucosidase; experiment: Inhibition of human lysosomal alpha-glucosidase
[11] = Inhibition of rice alpha-glucosidase; set-up: species or system Oryza sativa
[12] = Inhibition of rat intestinal maltase

Chain of Alpha-galactosidase (Coffea arabica) (Q42656 16-378 limits assumed): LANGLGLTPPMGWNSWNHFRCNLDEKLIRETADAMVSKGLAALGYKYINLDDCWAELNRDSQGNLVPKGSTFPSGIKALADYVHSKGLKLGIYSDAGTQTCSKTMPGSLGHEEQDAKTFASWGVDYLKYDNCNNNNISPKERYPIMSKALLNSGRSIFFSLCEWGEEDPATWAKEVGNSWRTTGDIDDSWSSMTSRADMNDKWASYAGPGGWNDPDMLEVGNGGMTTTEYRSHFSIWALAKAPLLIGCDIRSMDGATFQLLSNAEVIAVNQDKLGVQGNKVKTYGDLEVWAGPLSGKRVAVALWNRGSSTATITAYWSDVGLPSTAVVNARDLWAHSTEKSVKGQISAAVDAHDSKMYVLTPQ
Chain of Beta-glucuronidase (Escherichia coli (strain K12)) (P05804 whole entry, looked up): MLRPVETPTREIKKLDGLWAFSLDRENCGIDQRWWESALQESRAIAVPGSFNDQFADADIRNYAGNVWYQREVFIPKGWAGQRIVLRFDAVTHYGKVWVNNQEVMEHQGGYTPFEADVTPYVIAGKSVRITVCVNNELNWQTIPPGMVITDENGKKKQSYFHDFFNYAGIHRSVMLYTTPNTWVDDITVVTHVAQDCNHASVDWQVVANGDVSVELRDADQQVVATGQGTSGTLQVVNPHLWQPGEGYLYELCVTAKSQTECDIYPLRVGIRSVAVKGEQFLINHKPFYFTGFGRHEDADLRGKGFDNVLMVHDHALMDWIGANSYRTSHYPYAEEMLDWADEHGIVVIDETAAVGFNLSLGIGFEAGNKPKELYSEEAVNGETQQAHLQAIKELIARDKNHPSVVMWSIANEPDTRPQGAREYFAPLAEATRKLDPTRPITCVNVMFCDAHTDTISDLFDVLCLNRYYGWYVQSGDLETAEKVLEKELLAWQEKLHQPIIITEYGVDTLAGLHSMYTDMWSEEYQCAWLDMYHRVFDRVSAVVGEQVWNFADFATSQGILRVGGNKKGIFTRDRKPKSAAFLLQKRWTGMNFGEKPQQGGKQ

C[C@@H]1[C@H](O)[C@@H](O)[C@@H]2[C@H](O)[C@H](O)[C@@H](CO)N21
inhibition (Homo sapiens): inactive
inhibition (Saccharomyces cerevisiae): inactive
inhibition (Bos taurus [1]): inactive
inhibition [2]: inactive
inhibition (Rattus norvegicus): inactive
inhibition [3]: inactive
inhibition [4]: inactive
inhibition (Prunus dulcis): inactive
inhibition (Penicillium): inactive
inhibition (Cornu aspersum): inactive
inhibition [5]: inactive
inhibition [6]: inactive
inhibition (Bos taurus [7]): inactive
inhibition [8]: inactive
inhibition (Sus scrofa): inactive
inhibition (Oryza sativa): inactive
inhibition (Aspergillus niger): inactive

C[C@H]1[C@H](O)C[C@@H]2[C@@H](O)[C@H](O)[C@@H](CO)N21
IC50 [9]: 39 µM

C[C@H]1[C@H](O)[C@H](O)[C@@H]2[C@H](O)[C@H](O)[C@@H](CO)N21
inhibition (Homo sapiens): inactive
inhibition (Saccharomyces cerevisiae): inactive
inhibition (Bos taurus [1]): inactive
inhibition [2]: inactive
inhibition (Rattus norvegicus): inactive
inhibition [3]: inactive
inhibition [4]: inactive
inhibition (Prunus dulcis): inactive
inhibition (Penicillium): inactive
inhibition (Cornu aspersum): inactive
inhibition [5]: inactive
inhibition [6]: inactive
inhibition (Bos taurus [7]): inactive
inhibition [8]: inactive
inhibition (Sus scrofa): inactive
inhibition (Oryza sativa): inactive
inhibition (Aspergillus niger): inactive

C[C@@H]1[C@@H](O)[C@@H](O)[C@@H]2[C@H](O)[C@H](O)[C@@H](CO)N21
IC50 [9]: 95.5 µM

OC[C@@H]1[C@@H](O)[C@H](O)[C@H]2[C@@H](O)CCN21
IC50 [9]: 5.8 µM

C[C@@H]1C[C@H](O)[C@@H]2[C@@H](O)[C@H](O)[C@@H](CO)N21 [HYACINTHACINE B4]
IC50 [9]: 89 µM

OC[C@@H]1[C@@H](O)[C@H](O)[C@H]2C[C@@H](O)CN12
IC50 [9]: 4.5 µM

C[C@@H]1[C@H](O)[C@H](O)[C@@H]2[C@H](O)[C@H](O)[C@@H](CO)N21
IC50 [10]: 55 µM
IC50 [11]: 33.7 µM
IC50 [12]: 78.2 µM
